Data from ChEMBL document CHEMBL3608221, “Regulating the master regulator: Controlling heat shock factor 1 as a chemotherapy approach” (Bioorg Med Chem Lett, 2015).

Assays:
[1] = system: A-375; assay: Cytotoxicity against human A375 cells in absence of HSF1 knock down treatment; format: functional, cell-based
[2] = system: A2058; assay: Cytotoxicity against human A2058 cells in absence of HSF1 knock down treatment; format: functional, cell-based
[3] = system: A-375; assay: Cytotoxicity against human A375 cells in presence of HSF1 knock down treatment; format: functional, cell-based
[4] = system: A2058; assay: Cytotoxicity against human A2058 cells in presence of HSF1 knock down treatment; format: functional, cell-based
[5] = Induction of cell death in human PANC1 cells at 50 uM; format: functional, PANC-1
[6] = Induction of cell death in human MIAPaCa2 cells at 50 uM; format: functional, MIA PaCa-2
[7] = Antitumor activity against human MIAPaCa2 cells xenografted in mouse assessed as reduction in tumor volume at 150 mg/kg; format: functional, MIA PaCa-2; design: scale not given: the % may be the effect or the level left
[8] = target: T1, Heat shock factor protein 1 (Homo sapiens) (UniProt Q00613); assay: Inhibition of HSF1 in human MIAPaCa2 cells assessed as potentiation of SM253-induced reduction in HSF1 at 50 uM relative to SM253 alone; format: cell-based; design: scale not given: the % may be the effect or the level left; conditions: MIA PaCa-2
T1 sequence (whole entry): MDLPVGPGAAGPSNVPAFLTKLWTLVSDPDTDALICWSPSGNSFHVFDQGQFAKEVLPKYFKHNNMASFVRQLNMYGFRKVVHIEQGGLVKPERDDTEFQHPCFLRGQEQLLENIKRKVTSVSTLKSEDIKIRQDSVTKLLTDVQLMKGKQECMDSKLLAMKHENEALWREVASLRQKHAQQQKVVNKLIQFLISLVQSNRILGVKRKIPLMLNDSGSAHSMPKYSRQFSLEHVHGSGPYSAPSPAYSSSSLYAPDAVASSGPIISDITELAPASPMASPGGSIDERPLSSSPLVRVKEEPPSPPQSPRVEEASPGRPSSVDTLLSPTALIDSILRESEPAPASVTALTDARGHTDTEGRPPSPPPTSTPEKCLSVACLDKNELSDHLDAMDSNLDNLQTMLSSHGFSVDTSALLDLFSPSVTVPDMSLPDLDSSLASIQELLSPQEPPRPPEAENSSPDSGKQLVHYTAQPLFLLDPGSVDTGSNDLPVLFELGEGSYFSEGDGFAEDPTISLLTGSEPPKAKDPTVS

[9] = target: T1, Heat shock factor protein 1 (Homo sapiens); assay: Inhibition of HSF1 in human HeLa cells assessed as potentiation of radicicol-induced increase in cell death at 2 uM relative to radicicol alone; format: cell-based; design: scale not given: the % may be the effect or the level left
[10] = target: T1, Heat shock factor protein 1 (Homo sapiens); assay: Inhibition of HSF1 in human HCT116 cells assessed as potentiation of SM258-induced increase in cell death at 30 uM relative to SM258 alone; format: cell-based; design: scale not given: the % may be the effect or the level left; conditions: HCT-116
[11] = target: T1, Heat shock factor protein 1 (Homo sapiens); assay: Inhibition of HSF1 in human HCT116 cells assessed as potentiation of SM253-induced increase in cell death at 5 uM relative to SM253 alone; format: cell-based; design: scale not given: the % may be the effect or the level left; conditions: HCT-116
[12] = target: T1, Heat shock factor protein 1 (Homo sapiens); assay: Inhibition of HSF1 in human HCT116 cells assessed as potentiation of SM258-induced reduction in HSF1 at 15 uM relative to SM258 alone; format: cell-based; design: scale not given: the % may be the effect or the level left; conditions: HCT-116
[13] = target: T1, Heat shock factor protein 1 (Homo sapiens); assay: Inhibition of HSF1 in human HCT116 cells assessed as potentiation of SM258-induced increase in cell death at 15 uM relative to SM258 alone; format: cell-based; design: scale not given: the % may be the effect or the level left; conditions: HCT-116
[14] = target: T1, Heat shock factor protein 1 (Homo sapiens); assay: Inhibition of HSF1 in human HCT116 cells assessed as potentiation of SM253-induced reduction in HSF1 at 5 uM relative to SM253 alone; format: cell-based; design: scale not given: the % may be the effect or the level left; conditions: HCT-116
[15] = target: T1, Heat shock factor protein 1 (Homo sapiens); assay: Inhibition of HSF1 in human MIAPaCa2 cells assessed as potentiation of SM253-induced increase in cell death at 50 uM relative to SM253 alone; format: cell-based; design: scale not given: the % may be the effect or the level left; conditions: MIA PaCa-2
[16] = target: T1, Heat shock factor protein 1 (Homo sapiens); assay: Inhibition of HSF1 in human HCT116 cells assessed as potentiation of SM258-induced reduction in HSF1 at 30 uM relative to SM258 alone; format: cell-based; design: scale not given: the % may be the effect or the level left; conditions: HCT-116
[17] = target: T1, Heat shock factor protein 1 (Homo sapiens); assay: Inhibition of HSF1 in human HCT116 cells assessed as potentiation of SM253-induced reduction in HSF1 at 50 uM relative to SM253 alone; format: cell-based; design: scale not given: the % may be the effect or the level left; conditions: HCT-116
[18] = target: T1, Heat shock factor protein 1 (Homo sapiens); assay: Inhibition of HSF1 in human HCT116 cells assessed as potentiation of SM253-induced increase in cell death at 50 uM relative to SM253 alone; format: cell-based; design: scale not given: the % may be the effect or the level left; conditions: HCT-116
[19] = target: T1, Heat shock factor protein 1 (Homo sapiens); assay: Inhibition of HSF1 in human INA63 cells assessed as potentiation of NVP-AUY-922-induced reduction in cell proliferation at 5 nM relative to NVP-AUY-922 alone; format: cell-based; design: scale not given: the % may be the effect or the level left
[20] = target: T1, Heat shock factor protein 1 (Homo sapiens); assay: Inhibition of HSF1 in human HeLa cells assessed as potentiation of radicicol and heat-induced increase in cell death at 60 nM relative to radicicol and heat alone; format: cell-based; design: scale not given: the % may be the effect or the level left
[21] = target: T1, Heat shock factor protein 1 (Homo sapiens); assay: Inhibition of HSF1 in human MM.1S cells assessed as potentiation of NVP-AUY-922-induced reduction in cell proliferation at 6 nM relative to NVP-AUY-922 alone; format: cell-based; design: scale not given: the % may be the effect or the level left
[22] = target: T1, Heat shock factor protein 1 (Homo sapiens); assay: Inhibition of HSF1 in human H929 cells assessed as potentiation of 17-AAG-induced icrease in cell death at 100 nM relative to 17-AAG alone; format: cell-based; design: scale not given: the % may be the effect or the level left
[23] = target: T1, Heat shock factor protein 1 (Homo sapiens); assay: Inhibition of HSF1 in human ASB244 cells assessed as potentiation of geldanamycin-induced reduction in cell proliferation at 20 uM relative to geldanamycin alone; format: cell-based; design: scale not given: the % may be the effect or the level left
[24] = target: T1, Heat shock factor protein 1 (Homo sapiens); assay: Inhibition of HSF1 in human HL60 cells assessed as potentiation of 17-AAG-induced reduction in cologenicity at 400 uM relative to 17-AAG alone; format: cell-based; design: scale not given: the % may be the effect or the level left; conditions: HL-60
[25] = target: T1, Heat shock factor protein 1 (Homo sapiens); assay: Inhibition of HSF1 in human ASB145 cells assessed as potentiation of geldanamycin-induced reduction in cell proliferation at 20 uM relative to geldanamycin alone; format: cell-based; design: scale not given: the % may be the effect or the level left
[26] = target: T1, Heat shock factor protein 1 (Homo sapiens); assay: Inhibition of HSF1 in human ASB244 cells assessed as potentiation of geldanamycin-induced reduction in cell migration at 10 uM relative to geldanamycin alone; format: cell-based; design: scale not given: the % may be the effect or the level left
[27] = target: T1, Heat shock factor protein 1 (Homo sapiens); assay: Inhibition of HSF1 in human HL60 cells assessed as potentiation of 17-AAG-induced increase in apoptosis at 400 uM relative to 17-AAG alone; format: cell-based; design: scale not given: the % may be the effect or the level left; conditions: HL-60
[28] = system: HCT-116; assay: Antitumor activity against human HCT116 cells xenografted in mouse assessed as reduction in tumor size at 50 mg/kg; format: functional
[29] = target: T2, Heat shock factor protein 1 (Homo sapiens, UniProt Q00613); assay: Inhibition of HSF1 (unknown origin) assessed as reduction in HSF1--mediated HSP transcription
T2 sequence (Q00613 whole entry): T1 sequence (whole entry)

COc1cccc(-c2cc(F)ccc2[C@H]2Cc3nc(N)nc(C)c3C(=O)N2)n1
IC50 [1]: 19 nM | IC50 [2]: 12.7 nM | IC50 [3]: 6 nM | IC50 [4]: 5.2 nM

CCCCCCCc1ccc(C#Cc2nc(C(N)=O)n([C@@H]3O[C@H](CO)[C@@H](O)[C@H]3O)n2)cc1
Activity [5]: 80% | Activity [6]: 90% | Activity [7]: 60%

CCC1CN2CCc3cc(OC)c(OC)cc3C2CC1CC1NCCc2ccccc21 (centres undefined)
Activity [8]: 55% | Activity [9]: 30% | Activity [10]: 95% | Activity [11]: 50% | Activity [12]: 50% | Activity [13]: 77% | Activity [14]: 30% | Activity [15]: 64% | Activity [16]: > 99% | Activity [17]: 60% | Activity [18]: 77%

CC(C)[C@]12O[C@H]1[C@@H]1O[C@]13[C@]1(O[C@H]1C[C@H]1C4=C(CC[C@@]13C)C(=O)OC4)[C@@H]2O
Activity [19]: 45% | Activity [20]: 45% | Activity [21]: 35% | Activity [22]: 40%

O=CN1CC/C(=C/c2ccc3c(c2)OCO3)C1=O
Activity [23]: 52% | Activity [24]: 99% | Activity [25]: 72% | Activity [26]: 75% | Activity [27]: 20%

CNc1ccc([N+](=O)[O-])c(Nc2ccc3[nH]ncc3c2)n1
inhibition in vivo at 50 mg/kg [28]: 50% | IC50 [29]: 1200 nM
